Experimental data from ChEMBL document CHEMBL1201862, “PubChem BioAssay data set” (2004).
The source made the active and inactive calls.

Tests used:
[1] = luciferase reporter signal reduction – luminescence, H4-C neuroglioblastoma cells, dose response (AID 2458); type: functional, cell-based;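 also: H4 neuroglioblastoma cells stably carrying a luciferase reporter gene fusion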
BJ [2] = test: cytotoxicity toward BJ-TERT fibroblasts, dose response, cell-based, RAS-independent, luminescence (AID 1933); type: functional; details: Homo sapiens
cells = type: functional, cell-based
[3] = inhibitors of SNCA 5'UTR-driven reporter translation, confirmation, H4 neuroglioma cells, luminescence (AID 1988); type: functional, cell-based
BJ [4] = test: cells; type: functional, cell-based; details: Homo sapiens
[5] = Luminescence-based dose response cell-based high throughput screening assay for cytotoxic compounds using the IEC-6 intestinal epithelial cell line. [Related pubchem assays: 1858 (Summary AID.), 1825 (Counterscreen.), 1907 (Confirmation screen.)]; type: functional
BJ [6] = test: cytotoxicity toward BJ-TERT-LT-ST fibroblasts, dose response, cell-based, RAS-independent, luminescence (AID 1935); type: functional; details: Homo sapiens;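 also: BJ fibroblasts immortalized with TERT plus LT and ST oncogenes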
[7] = cytotoxicity toward DRD oncogenic fibroblasts, dose response, cell-based, non-viral oncogenic, luminescence (AID 1934); type: functional; details: Homo sapiens
[8] = inhibitors of SNCA 5'UTR-driven translation, confirmation, luminescence, H4 neuroglioblastoma cells, dose confirmation (AID 2454); type: functional, cell-based;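 also: H4 neuroglioblastoma cells carrying an alpha-synuclein 5'UTR luciferase reporter; potency for inhibition of the luciferase signal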
[9] = cytotoxicity in HEK-293T cells, dose response, cytotoxicity control for TCR NF-kB inhibitor project, luminescence, T-cell screen hits (AID 489026); type: functional, cell-based;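 also: cells exposed to compound about 14 hours before the viability readout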
Phospholipase A2 = Phospholipase A2 (Homo sapiens, UniProt P04054); test: PLA2 enzyme inhibitors, dose response, counter-screen for ATG4B inhibitor project, biochemical, set 2 (AID 588586); type: functional
Sequence of Phospholipase A2 (P04054 whole entry): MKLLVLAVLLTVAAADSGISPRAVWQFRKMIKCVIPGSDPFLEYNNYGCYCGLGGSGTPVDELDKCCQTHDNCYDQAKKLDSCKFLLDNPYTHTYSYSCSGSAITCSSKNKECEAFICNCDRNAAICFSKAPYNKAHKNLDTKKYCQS

Cysteine protease ATG4B = molecular target: T1, Cysteine protease ATG4B (Homo sapiens, UniProt Q9Y4P1); test: ATG4B protease inhibitors, dose response, biochemical, fluorescence, set 2 (AID 588584); type: functional
T1 sequence (Q9Y4P1 whole entry): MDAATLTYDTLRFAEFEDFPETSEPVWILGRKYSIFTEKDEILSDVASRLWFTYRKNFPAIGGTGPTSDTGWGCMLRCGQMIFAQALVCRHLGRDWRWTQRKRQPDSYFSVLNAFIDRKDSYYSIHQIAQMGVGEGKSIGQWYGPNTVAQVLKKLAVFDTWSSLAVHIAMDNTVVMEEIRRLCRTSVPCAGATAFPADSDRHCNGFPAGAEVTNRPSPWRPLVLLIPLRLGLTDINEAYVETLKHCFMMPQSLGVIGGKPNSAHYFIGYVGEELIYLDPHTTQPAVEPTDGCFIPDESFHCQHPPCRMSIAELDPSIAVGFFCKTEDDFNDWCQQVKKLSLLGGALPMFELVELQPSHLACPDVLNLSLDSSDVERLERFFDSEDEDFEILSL

Paired box protein Pax-8 = Paired box protein Pax-8 (Homo sapiens, UniProt Q06710); test: inhibitors of PAX8-driven TPO luciferase reporter, dose response, RMG-I cells, cherry-pick (AID 687027); type: functional, cell-based;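 also: luciferase reporter driven by Pax8 target thyroperoxidase promoter measured by SteadyGlo luminescence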
Sequence of Paired box protein Pax-8 (Q06710 whole entry): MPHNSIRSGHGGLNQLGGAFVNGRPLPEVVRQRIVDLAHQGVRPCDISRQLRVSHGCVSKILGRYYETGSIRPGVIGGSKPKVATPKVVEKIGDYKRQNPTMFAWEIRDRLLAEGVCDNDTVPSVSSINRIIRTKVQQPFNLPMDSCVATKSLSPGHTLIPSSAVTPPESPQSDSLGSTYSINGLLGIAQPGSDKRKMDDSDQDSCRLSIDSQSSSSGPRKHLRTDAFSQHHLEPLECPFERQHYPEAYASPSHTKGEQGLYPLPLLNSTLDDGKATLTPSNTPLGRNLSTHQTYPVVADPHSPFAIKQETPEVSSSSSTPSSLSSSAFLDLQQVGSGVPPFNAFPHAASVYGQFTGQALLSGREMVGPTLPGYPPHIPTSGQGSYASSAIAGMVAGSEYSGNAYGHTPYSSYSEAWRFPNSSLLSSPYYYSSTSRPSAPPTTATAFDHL

[10] = PAX2 cell-based inhibition, dose response, selectivity assay for PAX8 inhibitor project, plate reader, dry powder samples (AID 743048); type: functional;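 also: HEK293 cells carrying a WT1 promoter luciferase reporter driven by expressed Pax2; potency is for inhibition of Pax2 driven reporter signal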
[11] = cytotoxicity in COV362 ovarian cancer cells, dose response, cytotoxicity control for PAX8 inhibitor project, cell-based, plate reader, dry powder, SA12 (AID 743144); type: functional
[12] = IOSE-T80 ovarian epithelial cell cytotoxicity, dose response, cytotoxicity control for PAX8 inhibitor project, plate reader, dry powder samples (AID 743045); type: functional, cell-based
[13] = A2780 ovarian cancer cell cytotoxicity, dose response, cytotoxicity control, plate reader, dry powder samples (AID 743046); type: functional, cell-based
[14] = NIH:OVCAR-3 ovarian cancer cell cytotoxicity, dose response, PAX8 inhibitor project, plate reader, dry powder samples (AID 743044); type: functional, cell-based
[15] = PAX5 activity inhibitors, dose response, selectivity assay for PAX8 inhibitor project, cell-based, plate reader, dry powder samples (AID 743047); type: functional;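 also: HEK293 cells carrying a Pax5 driven CD19 promoter luciferase reporter; potency of inhibitors that lower reporter luminescence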
[16] = IGROV1 ovarian cancer cell cytotoxicity, dose response, PAX8 inhibitor project, plate reader, dry powder samples (AID 743043); type: functional, cell-based; details: IGROV-1
[17] = cytotoxicity in OVCAR4 cells, dose response, cytotoxicity control for PAX8 inhibitor project, cell-based, plate reader, dry powder, SA11 (AID 743150); type: functional; details: OVCAR-4
[18] = cytotoxicity in COV434 cells, dose response, cytotoxicity control for PAX8 inhibitor project, cell-based, plate reader, dry powder, SA7 (AID 743145); type: functional
[19] = cytotoxicity in OV-90 ovarian cancer cells, dose response, PAX8 inhibitor project, cell-based, plate reader, dry powder, SA8 (AID 743149); type: functional
[20] = cytotoxicity dependent on PAX8, dose response, cell-based, plate reader, dry powder (AID 743049); type: functional
[21] = molecular target: NACHT, LRR and PYD domains-containing protein 3 (Homo sapiens, UniProt Q96P20); test: NALP3 inhibitors in yeast, dose response, luminescent (AID 488799); type: functional
Sequence of NACHT, LRR and PYD domains-containing protein 3 (Q96P20 whole entry, the tested form may be a part): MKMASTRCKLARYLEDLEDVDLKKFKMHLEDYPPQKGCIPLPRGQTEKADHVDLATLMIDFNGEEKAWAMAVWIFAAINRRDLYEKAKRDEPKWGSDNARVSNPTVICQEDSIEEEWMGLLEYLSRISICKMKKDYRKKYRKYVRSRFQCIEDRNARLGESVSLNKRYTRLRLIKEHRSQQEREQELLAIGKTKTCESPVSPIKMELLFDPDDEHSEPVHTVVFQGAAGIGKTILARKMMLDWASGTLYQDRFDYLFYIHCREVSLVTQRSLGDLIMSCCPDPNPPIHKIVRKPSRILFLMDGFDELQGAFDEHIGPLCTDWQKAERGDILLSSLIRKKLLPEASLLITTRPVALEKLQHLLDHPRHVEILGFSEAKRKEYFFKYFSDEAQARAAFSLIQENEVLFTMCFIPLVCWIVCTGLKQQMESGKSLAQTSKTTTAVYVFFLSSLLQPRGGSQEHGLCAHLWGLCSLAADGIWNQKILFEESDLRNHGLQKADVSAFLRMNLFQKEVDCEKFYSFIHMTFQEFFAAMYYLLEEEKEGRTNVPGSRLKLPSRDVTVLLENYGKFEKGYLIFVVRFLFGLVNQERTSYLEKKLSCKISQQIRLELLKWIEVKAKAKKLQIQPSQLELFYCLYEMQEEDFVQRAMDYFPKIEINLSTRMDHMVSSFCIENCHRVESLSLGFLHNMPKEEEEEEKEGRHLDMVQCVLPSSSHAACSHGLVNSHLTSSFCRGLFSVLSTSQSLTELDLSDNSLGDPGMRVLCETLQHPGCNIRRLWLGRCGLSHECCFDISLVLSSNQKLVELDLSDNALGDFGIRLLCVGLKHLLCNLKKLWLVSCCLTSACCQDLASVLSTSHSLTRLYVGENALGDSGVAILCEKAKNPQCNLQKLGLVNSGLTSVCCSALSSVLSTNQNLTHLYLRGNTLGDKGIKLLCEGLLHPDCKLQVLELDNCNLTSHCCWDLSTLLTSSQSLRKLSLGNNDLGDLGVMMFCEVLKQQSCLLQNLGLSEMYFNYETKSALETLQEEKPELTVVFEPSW

Cytochrome P450 2C9 = Cytochrome P450 2C9 (Homo sapiens, UniProt P11712); details: Potency
Sequence of Cytochrome P450 2C9 (P11712 whole entry): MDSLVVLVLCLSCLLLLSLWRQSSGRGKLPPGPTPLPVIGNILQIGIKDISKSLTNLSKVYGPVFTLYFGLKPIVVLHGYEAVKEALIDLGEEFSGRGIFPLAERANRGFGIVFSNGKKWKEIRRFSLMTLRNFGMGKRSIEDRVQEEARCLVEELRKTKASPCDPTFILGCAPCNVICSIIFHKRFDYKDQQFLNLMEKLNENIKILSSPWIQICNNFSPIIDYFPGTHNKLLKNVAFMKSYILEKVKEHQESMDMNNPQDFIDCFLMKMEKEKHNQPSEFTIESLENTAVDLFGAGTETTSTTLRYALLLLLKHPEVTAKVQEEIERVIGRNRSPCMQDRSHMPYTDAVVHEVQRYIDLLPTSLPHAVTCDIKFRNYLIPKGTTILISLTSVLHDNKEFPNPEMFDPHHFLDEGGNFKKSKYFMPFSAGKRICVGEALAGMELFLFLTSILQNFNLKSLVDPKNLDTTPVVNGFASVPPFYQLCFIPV

[22] = molecular target: Melanin-concentrating hormone receptor 1 (Homo sapiens, UniProt Q99705); test: Late-stage fluorescence-based counterscreen for antagonists of the G-protein coupled receptor 7 (GPR7): cell-based dose response assay to identify antagonists of the melanin-concentrating hormone receptor 1 (MCHR1). [Related pubchem assays (depositor defined):AID1861, AID1880, AID1952, AID2148, AID2251, AID2257, AID485339]; type: functional;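 also: stimulated with 30 nM MCH peptide agonist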
Sequence of Melanin-concentrating hormone receptor 1 (Q99705 whole entry): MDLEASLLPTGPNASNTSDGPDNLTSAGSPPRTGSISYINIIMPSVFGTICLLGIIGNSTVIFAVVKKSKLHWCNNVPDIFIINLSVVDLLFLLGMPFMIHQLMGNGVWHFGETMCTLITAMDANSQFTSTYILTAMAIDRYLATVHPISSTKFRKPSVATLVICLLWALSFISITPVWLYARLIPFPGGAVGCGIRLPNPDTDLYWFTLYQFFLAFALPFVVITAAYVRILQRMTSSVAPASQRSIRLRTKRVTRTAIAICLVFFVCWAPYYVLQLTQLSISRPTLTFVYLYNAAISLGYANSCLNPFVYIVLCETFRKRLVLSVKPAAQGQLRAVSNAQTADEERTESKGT

[23] = molecular target: T2, Neuropeptides B/W receptor type 1 (Homo sapiens, UniProt P48145); test: GPR7 antagonist potency, late-stage follow-up, cell-based, fluorescence, dose response (AID 463251); type: functional
T2 sequence (P48145 whole entry): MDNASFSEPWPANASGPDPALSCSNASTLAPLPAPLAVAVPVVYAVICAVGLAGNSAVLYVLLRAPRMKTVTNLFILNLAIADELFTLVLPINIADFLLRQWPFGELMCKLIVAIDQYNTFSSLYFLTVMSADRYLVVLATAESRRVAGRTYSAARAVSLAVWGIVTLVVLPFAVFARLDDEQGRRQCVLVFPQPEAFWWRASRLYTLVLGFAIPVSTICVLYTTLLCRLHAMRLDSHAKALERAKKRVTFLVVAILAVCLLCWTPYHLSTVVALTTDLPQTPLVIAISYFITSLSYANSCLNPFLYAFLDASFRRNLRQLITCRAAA

For CCCC1=Nc2cc(C(=O)NCCCOCC)ccc2Sc2ccccc21, the EC50 [1] was 592 nM (active), the EC50 (BJ [2]) was 586 nM (inconclusive) and the EC50 (cells) was 985 nM (active). For the same compound, the EC50 [3] was < 100 nM (active), the EC50 (BJ [4]) was 863 nM (inconclusive) and the IC50 [5] was 389 nM (active). For the same compound, the EC50 (BJ [6]) was 607 nM (inconclusive), the EC50 [7] was 740 nM (inconclusive) and the EC50 [8] was 836 nM (active). For the same compound, the IC50 [9] was > 80000 nM (inactive), the IC50 (Phospholipase A2) was 48900 nM (inactive) and the IC50 (Cysteine protease ATG4B) was 49000 nM (inactive). For the same compound, the AC50 (Paired box protein Pax-8) was 1740 nM (active), the AC50 [10] was 64000 nM (active) and the AC50 [11] was 1420 nM (active). The AC50 [12] was 1220 nM (active), the AC50 [13] was 5660 nM (active) and the AC50 [14] was 5370 nM (active). The AC50 [15] was 1480 nM (active), the AC50 [16] was 7990 nM (active) and the AC50 [17] was 885 nM (active). The AC50 [18] was 1300 nM (active), the AC50 [19] was 1360 nM (active) and the AC50 [20] was 7230 nM (active).

With O=C(NCCCc1ccccc1)c1c(O)nc2sccn2c1=O the IC50 [21] was 9610 nM (active).

In the case of CC(C)C[C@@H](CC(=O)N[C@H](CC(=O)N[C@@H]1CCCC[C@H]1C(=O)N[C@H](CC(=O)N[C@@H](CCC(=O)O)CC(=O)O)CC(C)C)C(C)C)NC(=O)[C@@H]1CCCC[C@H]1N, the AC50 (Cytochrome P450 2C9) is reported as 39800 nM (inconclusive).

In the case of Cc1ccc(-n2ncc(Cl)c(Oc3ccc(OC(F)(F)F)cc3)c2=O)cc1, the IC50 [22] is reported as 2900 nM (active) and the IC50 [23] is reported as 880 nM (active).
